The target of assay [1] is T1, 20S proteasome (Mus musculus, UniProt O55234).
T1 construct: endogenous in cells; host or cells: B16 melanoma cells (lysate after 20-24 h treatment)
T1 sequence (O55234 60-264): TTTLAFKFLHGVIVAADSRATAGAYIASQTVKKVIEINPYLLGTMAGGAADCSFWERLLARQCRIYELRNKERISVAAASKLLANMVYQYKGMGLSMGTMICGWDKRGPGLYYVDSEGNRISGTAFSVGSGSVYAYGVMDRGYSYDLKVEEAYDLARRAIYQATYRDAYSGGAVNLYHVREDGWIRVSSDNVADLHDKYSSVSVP
The assay is described as follows: Proteasomal protease in vitro assay (ProteasomeGlo, Suc-LLVY luminogenic substrate) in B16 melanoma cells. In kind it is cell-based. Conditions: for Fold Change Over Control (luminescence): B16 melanoma cells; for Ricinoleate concentration at which synergy with niacinamide is statistically significant: combined with 250 μM niacinamide. On the procedure: The following proteasomal protease in vitro assay was employed for evaluating activity associated with this pathway. Cultures of B16 melanoma cells (about 25% confluence) were treated with a culture media (Dulbecco's Modified Eagle Medium, 11995-065 Life technologies supplemented with 5% Fetal Bovine Serum, 30-2020, American Tissue Culture Collection and 1% Penicillin/streptomycin, 15140, Life Technologies) and one of 1) a vehicle (DMSO) containing niacinamide, 2) a vehicle (DMSO) containing one of glycerol ricinoleate, sodium ricinoleate and butyl acetyl ricinoleate at varying dilutions, 3) a vehicle (DMSO) containing a combination of niacinamide and one of the ricinoleate compounds listed above, and 4) a vehicle (DMSO) containing 2-hexyl-decanol as a positive control. The final dilution of DMSO in the culture medium was 1% in all instances. The treated melanoma cells were incubated in multi-well plates at 37° C. in a CO2 incubator for a period of 20 to 24 hours. The treated cells were thereafter lyzed by removing the culture medium and replacing it with 100 uL/well of CellGlo lysis reagent (available from Promega, Wis., USA) followed by incubation at room temperature for about 10 minutes. A luminogenic substrate containing a Suc-LLVY peptide sequence recognized by the 20S proteasome was added to the B16 cultures, and the mixtures were incubated in multi-well plates at a temperature of 25° C. for approximately 10 minutes. Luminescence counts (a unit less measurement from the plate reader) from developing the cleaved substrate with luciferase detection system (ProteasomeGlo® from Promega, Madison, Wis.) was measured in an Envision Plate Reader (Perkin Elmer, Waltham, Mass.). Other plate luminometer/luminescence readers may also be used as known in the art.
Luminescence counts for treatment groups were divided by the luminescence counts from the vehicle control (1% DMSO, as diluted in the culture medium). […] 2-hexyldecanol, a known skin tone agent, was also previously found to activate this proteasomal chymotryptic protease activity. See, e.g., Hakozaki et al., A regulator of ubiquitin-proteasome activity, 2-hexyldecanol, suppresses melanin synthesis and the appearance of facial hyperpigmented spots, British Journal of Dermatology 2013, 169 (Supp 2), pp 39-44.

For assay [2], the target named is T1, 20S proteasome. Conditions: previously found, Hakozaki et al. 2013; cited from earlier work.
[3] abbreviates: vitamin B3 compound alone, 250 uM, B16 cells, average of 3 replicates.
Where [4] appears, read: experiment #1, N=3, 20 to 24 hours, DMSO vehicle.
[5] abbreviates: experiment #2, N=3, 20 to 24 hours, DMSO vehicle.
Setting [6] is: ricinoleate compound alone, 0.000064 w/v %, B16 cells.
Setting [7] is: ricinoleate compound alone, 0.00032 w/v %, B16 cells.
Where [8] appears, read: ricinoleate compound alone, 0.0016 w/v %, B16 cells.
[9] abbreviates: ricinoleate compound alone, 0.008 w/v %, B16 cells.

Several values for one entry are separate records, joined by “and”; a condition that tells them apart may be missing. Equal values may be shown once.

`COC(=O)c1cccnc1` [Methyl niconate, methyl niconate]: the “Net Luminescence (treatment luminescence counts − vehicle control luminescence counts)” value (“Net Luminescence” below) at 20S proteasome [1] (setting [3]) came out at 162.
Still for that read-out and setting: to `OCc1cccnc1` [3-pyridinemethanol] belongs 105.
`CCCCCC[C@@H](O)C/C=C\CCCCCCCC(=O)[O-].[Na+]` [Sodium ricinoleate, sodium ricinoleate]: the “Fold Change Over Control (luminescence)” value was found to be 1.24 on 20S proteasome [1] (Avg. of experiments #1 and #2); 1.26 on 20S proteasome [1] (setting [4]); 1.21 on 20S proteasome [1] (setting [5]). Besides, the “Net Luminescence” value on 20S proteasome [1] (setting [6]) was found to be 123; on 20S proteasome [1] (setting [7]) it was 878; at 20S proteasome [1] (setting [8]) it was 1805; at 20S proteasome [1] (setting [9]), 2164.
`CCCCCC[C@H](C/C=C\CCCCCCCC(=O)OCCCC)OC(C)=O` [Butyl acetyl ricinoleate, butyl acetyl ricinoleate]: the “Fold Change Over Control (luminescence)” value at 20S proteasome [1] (Avg. of experiments #1 and #2) is on record as 1.29; at 20S proteasome [1] (setting [4]), 1.32; at 20S proteasome [1] (setting [5]), 1.26. Further, at 20S proteasome [1] (B16 cells), the “Ricinoleate concentration at which synergy with niacinamide is statistically significant” value is given as not below 0.00032%. Moreover, the “Net Luminescence” value amounted to 1224 at 20S proteasome [1] (setting [6]), 2164 on 20S proteasome [1] (setting [7]), 2357 on 20S proteasome [1] (setting [8]) and 2439 at 20S proteasome [1] (setting [9]).
With `O=C(O)c1cccnc1` [Nicotinic acid, nicotinic acid], the “Net Luminescence” value on 20S proteasome [1] (setting [3]) is 303.
On to `CCCCCC[C@@H](O)C/C=C\CCCCCCCC(=O)OC` [Methyl ricinoleate, methyl ricinoleate], for which the “Ricinoleate concentration at which synergy with niacinamide is statistically significant” value on 20S proteasome [1] (B16 cells) was 0.008%. The “Net Luminescence” value at 20S proteasome [1] (setting [9]) is listed as 4222.
As to `CCCCCC[C@@H](O)C/C=C\CCCCCCCC(=O)OCC(O)CO` (stereo partly shown) [Glyceryl ricinoleate, glyceryl ricinoleate], the “Fold Change Over Control (luminescence)” value came out at 1.17 at 20S proteasome [1] (Avg. of experiments #1 and #2); 1.15 at 20S proteasome [1] (setting [4]); 1.18 on 20S proteasome [1] (setting [5]). Besides, the “Net Luminescence” value on 20S proteasome [1] (setting [6]) is 123; on 20S proteasome [1] (setting [7]), 534; on 20S proteasome [1] (ricinoleate compound alone, 0.00032 w/v %, B16 cells, listed as GR) it was 287 and 518; at 20S proteasome [1] (setting [8]), 839; at 20S proteasome [1] (ricinoleate compound alone, 0.0016 w/v %, B16 cells, listed as GR) it was 745 and 1258; on 20S proteasome [1] (setting [9]), 867. In addition, the “Net Luminescence” value on 20S proteasome [1] (ricinoleate compound alone, 0.008 w/v %, B16 cells, listed as GR) was 789 and 1125.
Turning to nicotinamide ribose, the “Net Luminescence” value on 20S proteasome [1] (setting [3]) came to 392.
In the case of `NC(=O)c1cccnc1` [Niacinamide, niacinamide], the “Activation of proteasomal protease activity, single agent (in words)” value at 20S proteasome [1] (B16 cells) is “lower level of activation”. Further, the “Net Luminescence” value on 20S proteasome [1] (setting [3]) was 158 (4×) and 257 (8×) and 1503.
As to `CCCCCCCCC(CO)CCCCCC` (stereo not shown) [2-hexyldecanol, reference compound], the “Activation of proteasomal chymotryptic protease activity (in words)” value on 20S proteasome [2] was “activate”. In addition, the “Fold Change Over Control (luminescence)” value on 20S proteasome [1] (Avg. of experiments #1 and #2) was found to be 1.16; on 20S proteasome [1] (setting [4]), 1.15; at 20S proteasome [1] (setting [5]), 1.17.

The values above are taken from patent publication US9597271B2, “Cosmetic compositions and methods” (The Procter & Gamble Company, priority 2013, dated 2017).
